Experimental data: patent US20170190671A1, “BIS(ARYL)CATECHOL DERIVATIVES AS HERBICIDES” (E I DU PONT DE NEMOURS AND COMPANY, priority 2014, published 2017)

Legend:
Format in all cases: in vivo
[1] = test system: ragweed (common ragweed, Ambrosia elatior); test: Test C postemergence; details: Ambrosia artemisiifolia, post-emergence, 336 h, Postemergence, scale 0 to 100, read-out: Plant response rating, Ragweed
How it was run: (§1)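 Treatment is preemergence to seeds in a loam and sand soil, or postemergence to plants 2 to 18 cm high in a peat moss-based medium. The compound is delivered in a non-phytotoxic solvent mixture including surfactant. Effects are judged by eye 13 to 15 days later on a 0 to 100 scale.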

[2] = test system: blackgrass (Alopecurus myosuroides); test: Test C postemergence; details: Alopecurus myosuroides, post-emergence, 336 h, Postemergence, scale 0 to 100, read-out: Plant response rating, Blackgrass
How it was run: as §1

[3] = test system: winter wheat (Triticum aestivum); test: Test C postemergence; details: Triticum aestivum, post-emergence, 336 h, Postemergence, scale 0 to 100, read-out: Plant response rating, Wheat
How it was run: as §1

[4] = test system: Italian ryegrass (Lolium multiflorum); test: Test C postemergence; details: Lolium multiflorum, post-emergence, 336 h, Postemergence, scale 0 to 100, read-out: Plant response rating, Ryegrass, Italian
How it was run: as §1

[5] = test system: kochia (Kochia scoparia); test: Test C postemergence; details: Bassia scoparia, post-emergence, Postemergence, scale 0 to 100, read-out: Plant response rating, Kochia
How it was run: as §1

[6] = test system: large (Lg) crabgrass (Digitaria sanguinalis); test: Test C postemergence; details: Digitaria sanguinalis, post-emergence, 336 h, Postemergence, scale 0 to 100, read-out: Plant response rating, Crabgrass, Large
How it was run: as §1

[7] = test system: corn (Zea mays); test: Test C postemergence; details: Zea mays, post-emergence, 336 h, Postemergence, scale 0 to 100
How it was run: as §1

[8] = test system: wild oat (Avena fatua); test: Test C postemergence; details: Avena fatua, post-emergence, Postemergence, scale 0 to 100, read-out: Plant response rating, Oat, Wild
How it was run: as §1

[9] = test system: johnsongrass (Sorghum halepense); test: Test C postemergence; details: Sorghum halepense, post-emergence, 336 h, Postemergence, scale 0 to 100, read-out: Plant response rating, Johnsongrass
How it was run: as §1

[10] = test system: chickweed (common chickweed, Stellaria media); test: Test C postemergence; details: Stellaria media, post-emergence, Postemergence, scale 0 to 100, read-out: Plant response rating, Chickweed
How it was run: as §1

[11] = test system: yellow nutsedge (Cyperus esculentus); test: Test C postemergence; details: Cyperus, post-emergence, 336 h, Postemergence, scale 0 to 100, read-out: Plant response rating, Nutsedge, Yellow
How it was run: as §1

[12] = test system: velvetleaf (Abutilon theophrasti); test: Test C postemergence; details: Abutilon theophrasti, post-emergence, Postemergence, scale 0 to 100, read-out: Plant response rating, Velvetleaf
How it was run: as §1

[13] = test system: giant foxtail (Setaria faberii); test: Test C postemergence; details: Setaria faberi, post-emergence, 336 h, Postemergence, scale 0 to 100, read-out: Plant response rating, Foxtail, Giant
How it was run: as §1

[14] = test system: galium (catchweed bedstraw, Galium aparine); test: Test C postemergence; details: Galium, post-emergence, 336 h, Postemergence, scale 0 to 100, read-out: Plant response rating, Galium
How it was run: as §1

[15] = test system: lambsquarters (Chenopodium album); test: Test C postemergence; details: Chenopodium album, post-emergence, 336 h, Postemergence, scale 0 to 100, read-out: Plant response rating, Lambsquarters
How it was run: as §1

[16] = test system: barnyardgrass (Echinochloa crus-galli); test: Test C postemergence; details: Echinochloa crus-galli, post-emergence, Postemergence, scale 0 to 100, read-out: Plant response rating, Barnyardgrass
How it was run: as §1

[17] = test system: morningglory (Ipomoea coccinea); test: Test C postemergence; details: Ipomoea, post-emergence, 336 h, Postemergence, scale 0 to 100, read-out: Plant response rating, Morningglory
How it was run: as §1

[18] = test system: oilseed rape (Brassica napus); test: Test C postemergence; details: Brassica napus, post-emergence, Postemergence, scale 0 to 100, read-out: Plant response rating, Oilseed Rape
How it was run: as §1

[19] = test system: soybean (Glycine max); test: Test C postemergence; details: Glycine max, post-emergence, Postemergence, scale 0 to 100, read-out: Plant response rating, Soybean
How it was run: as §1

[20] = test system: blackgrass (Alopecurus myosuroides); test: Test C preemergence; details: Alopecurus myosuroides, pre-emergence, 336 h, scale 0 to 100, read-out: Plant response rating, Blackgrass
How it was run: as §1

[21] = test system: yellow nutsedge (Cyperus esculentus); test: Test C preemergence; details: Cyperus, pre-emergence, 336 h, scale 0 to 100, read-out: Plant response rating, Nutsedge, Yellow
How it was run: as §1

[22] = test system: oilseed rape (Brassica napus); test: Test C preemergence; details: Brassica napus, pre-emergence, scale 0 to 100, read-out: Plant response rating, Oilseed Rape
How it was run: as §1

`N#Cc1cccc(Oc2ncc(Cl)cn2)c1Oc1ncc(Br)cn1` [Compound 4, 2-[(5-bromo-2-pyrimidinyl)oxy]-3-[(5-chloro-2-pyrimidinyl)oxy]benzonitrile] showed a pest or weed control at 31 g/ha ([1]; 31 g ai/ha) of 50%, a pest or weed control at 62 g/ha ([1]; 62 g ai/ha) of 75% and a pest or weed control at 125 g/ha ([1]; 125 g ai/ha) of 85%. The pest or weed control at 16 g/ha ([2]; 16 g ai/ha) was 0%, the pest or weed control at 31 g/ha ([2]; 31 g ai/ha) was 0% and the pest or weed control at 62 g/ha ([2]; 62 g ai/ha) was 0%. For the same compound, the pest or weed control at 125 g/ha ([2]; 125 g ai/ha) was 10%, the plant injury at 31 g/ha ([3]; 31 g ai/ha) was 0% and the plant injury at 62 g/ha ([3]; 62 g ai/ha) was 5%. The plant injury at 125 g/ha ([3]; 125 g ai/ha) was 5%, the pest or weed control at 31 g/ha ([4]; 31 g ai/ha) was 0% and the pest or weed control at 62 g/ha ([4]; 62 g ai/ha) was 0%. For the same compound, the pest or weed control at 125 g/ha ([4]; 125 g ai/ha) was 5%, the pest or weed control at 16 g/ha ([5]; 16 g ai/ha) was 60% and the pest or weed control at 31 g/ha ([5]; 31 g ai/ha) was 60%. It also gave a pest or weed control at 62 g/ha ([5]; 62 g ai/ha) of 80%, a pest or weed control at 125 g/ha ([5]; 125 g ai/ha) of 100% and a pest or weed control at 16 g/ha ([6]; 16 g ai/ha) of 5%. It also gave a pest or weed control at 31 g/ha ([6]; 31 g ai/ha) of 5%, a pest or weed control at 62 g/ha ([6]; 62 g ai/ha) of 5% and a pest or weed control at 125 g/ha ([6]; 125 g ai/ha) of 10%. For the same compound, the Corn plant response rating (crop injury, 0 = no effect, 100 = complete kill) at 16 g/ha ([7]; 16 g ai/ha) was 5%, the Corn plant response rating (crop injury, 0 = no effect, 100 = complete kill) at 31 g/ha ([7]; 31 g ai/ha) was 5% and the Corn plant response rating (crop injury, 0 = no effect, 100 = complete kill) at 62 g/ha ([7]; 62 g ai/ha) was 5%. The Corn plant response rating (crop injury, 0 = no effect, 100 = complete kill) at 125 g/ha ([7]; 125 g ai/ha) was 10%, the pest or weed control at 31 g/ha ([8]; 31 g ai/ha) was 5% and the pest or weed control at 62 g/ha ([8]; 62 g ai/ha) was 10%. The pest or weed control at 125 g/ha ([8]; 125 g ai/ha) was 10%, the pest or weed control at 16 g/ha ([9]; 16 g ai/ha) was 5% and the pest or weed control at 31 g/ha ([9]; 31 g ai/ha) was 5%. It also gave a pest or weed control at 62 g/ha ([9]; 62 g ai/ha) of 5%, a pest or weed control at 125 g/ha ([9]; 125 g ai/ha) of 5% and a pest or weed control at 16 g/ha ([10]; 16 g ai/ha) of 20%. For the same compound, the pest or weed control at 31 g/ha ([10]; 31 g ai/ha) was 40%, the pest or weed control at 62 g/ha ([10]; 62 g ai/ha) was 50% and the pest or weed control at 125 g/ha ([10]; 125 g ai/ha) was 80%. For the same compound, the pest or weed control at 31 g/ha ([11]; 31 g ai/ha) was 0%, the pest or weed control at 62 g/ha ([11]; 62 g ai/ha) was 10% and the pest or weed control at 125 g/ha ([11]; 125 g ai/ha) was 10%. The pest or weed control at 31 g/ha ([12]; 31 g ai/ha) was 40%, the pest or weed control at 62 g/ha ([12]; 62 g ai/ha) was 50% and the pest or weed control at 125 g/ha ([12]; 125 g ai/ha) was 60%. For the same compound, the pest or weed control at 16 g/ha ([13]; 16 g ai/ha) was 40%, the pest or weed control at 31 g/ha ([13]; 31 g ai/ha) was 40% and the pest or weed control at 62 g/ha ([13]; 62 g ai/ha) was 45%. The pest or weed control at 125 g/ha ([13]; 125 g ai/ha) was 35%, the pest or weed control at 16 g/ha ([14]; 16 g ai/ha) was 55% and the pest or weed control at 31 g/ha ([14]; 31 g ai/ha) was 55%. The pest or weed control at 62 g/ha ([14]; 62 g ai/ha) was 60%, the pest or weed control at 125 g/ha ([14]; 125 g ai/ha) was 95% and the pest or weed control at 16 g/ha ([15]; 16 g ai/ha) was 30%. The pest or weed control at 31 g/ha ([15]; 31 g ai/ha) was 70%, the pest or weed control at 62 g/ha ([15]; 62 g ai/ha) was 80% and the pest or weed control at 125 g/ha ([15]; 125 g ai/ha) was 90%. It also gave a pest or weed control at 16 g/ha ([16]; 16 g ai/ha) of 5%, a pest or weed control at 31 g/ha ([16]; 31 g ai/ha) of 5% and a pest or weed control at 62 g/ha ([16]; 62 g ai/ha) of 5%. The pest or weed control at 125 g/ha ([16]; 125 g ai/ha) was 5%, the pest or weed control at 31 g/ha ([17]; 31 g ai/ha) was 80% and the pest or weed control at 62 g/ha ([17]; 62 g ai/ha) was 85%. It also gave a pest or weed control at 125 g/ha ([17]; 125 g ai/ha) of 95%, a plant injury at 31 g/ha ([18]; 31 g ai/ha) of 10% and a plant injury at 62 g/ha ([18]; 62 g ai/ha) of 45%. For the same compound, the plant injury at 125 g/ha ([18]; 125 g ai/ha) was 60%, the plant injury at 31 g/ha ([19]; 31 g ai/ha) was 70% and the plant injury at 62 g/ha ([19]; 62 g ai/ha) was 70%. The plant injury at 125 g/ha ([19]; 125 g ai/ha) was 70%, the pest or weed control at 31 g/ha ([20]; 31 g ai/ha, preemergence) was 30% and the pest or weed control at 62 g/ha ([20]; 62 g ai/ha, preemergence) was 95%. The pest or weed control at 125 g/ha ([20]; 125 g ai/ha, preemergence) was 95%, the pest or weed control at 16 g/ha ([20]; Preemergence, 16 g ai/ha) was 0% and the pest or weed control at 31 g/ha ([21]; 31 g ai/ha, preemergence) was 0%. For the same compound, the pest or weed control at 62 g/ha ([21]; 62 g ai/ha, preemergence) was 30%, the pest or weed control at 125 g/ha ([21]; 125 g ai/ha, preemergence) was 55% and the pest or weed control at 16 g/ha ([21]; Preemergence, 16 g ai/ha) was 0%. For the same compound, the plant injury at 31 g/ha ([22]; 31 g ai/ha, preemergence) was 75%, the plant injury at 62 g/ha ([22]; 62 g ai/ha, preemergence) was 90% and the plant injury at 125 g/ha ([22]; 125 g ai/ha, preemergence) was 100%. For the same compound, the plant injury at 16 g/ha ([22]; Preemergence, 16 g ai/ha) was 15%.
